From BindingDB's records for PubMed 32698113 (Sichuan University, 2020) come the findings set out here.

A short description of the assay: Inhibition of human neutrophil elastase activity assessed as reduction in […].

Structures are written as SMILES.

The IC50 is the point on the concentration scale where inhibition reaches its midpoint. For `COc1cc2c(c3c1CCC(c1ccccc1)O3)C1C3C(c4ccc(O)c(C)c4OC)C(C(O)(OC)c4ccccc4)C14C(C=CC(=O)C4OC)OC3(c1ccccc1)O2` (stereo unspecified), the IC50 is > 10 µM.
